For one series, the system named is LH peak / ovulation. As to conditions: cited from earlier work.
Another series deals with plasma LH concentration. Nature of the series: In vivo activity test: plasma LH concentration in ewes after injection of the peptide compound. Also noted: species or system ewes of the Ile de France breed. The note with it: for increase in the plasma concentration of LH (% of Comp.1 maximum stimulation): FIG. 4. As to the method:
The tests were carried out on ewes of the Ile de France breed, either in the anestrus period for the comparative compounds Comp.1 and Comp.3, or in the estrus period for the comparative compound Comp.1 and for the compounds in accordance with the invention C1, C4 and C6. The ewes used in the estrus period were pretreated with a vaginal sponge containing 20 mg of fluorogestone acetate (Chronogest CR sponge, Intervet) in order to block the secretion of LH and to stimulate a luteal phase.
Five days after the insertion of the sponge (for the animals in the estrus period) or the day before the test (for the animals in the anestrus period), a catheter was inserted into the jugular vein of the animal. On the day of the test, the peptide compound to be tested was injected into the catheter, at the desired dose (5 nmol/ewe), diluted in 1 ml of physiological solution. Physiological saline containing heparin (3 ml) was injected immediately after the peptide compound in order to rinse the catheter and to carry all of the compound into the animal's bloodstream.
A negative control (T) consisting of physiological solution alone was also carried out.
Before and following the injection of the test compound, blood samples were taken at variable intervals between 10 min and 1 h, for a period of between 3 h and 30 h.
The blood samples were centrifuged, and the plasma was stored at −20° C. until it was used to measure the LH concentration, according to an RIA method described in the literature (Caraty et al., 2007).
The tests were carried out on ewes of the Ile de France breed in the anestrus period, in the same way as above with reference to the 1st experiment (without any treatment with progesterone). In particular, for all the animals, the day before the test, a catheter was inserted into the jugular vein of the animal. On the day of the test, the peptide compound to be tested was injected into the catheter, at the desired dose (5 nmol/ewe), diluted in 1 ml of physiological solution.
The tests were carried out on ewes of the Ile de France breed in the anestrus period, as indicated above with reference to the 1st experiment (without any treatment with progesterone). In particular, for all the animals, the day before the test, a catheter was inserted into the jugular vein of the animal. On the day of the test, the peptide compound to be tested was injected into the catheter, at the desired dose, diluted in 1 ml of physiological solution. For each compound, the following three doses were tested: 1 nmol/ewe, 5 nmol/ewe and 15 nmol/ewe. […]
Before and following the injection of the test compound, blood samples were taken at variable intervals between 10 min and 1 h, for a period of 10 h.
The blood samples were centrifuged, and the plasma was stored at −20° C. until it was used to measure the LH concentration, according to the RIA method described in the literature (Caraty et al., 2007).

Series [1] in a line: Test for proteolytic degradation of the peptide compounds in ovine serum. The series is classed as in vitro ADME, ewes of the Ile de France breed. The note with it: for remaining at 3 h, 50 μM: female, Ile de France, sheep. Here is the method:
In order to carry out this test, blood was collected from the jugular vein of ewes of the Ile de France breed, and centrifuged. The supernatant (serum) was stored at −20° C. until use.
The degradation in this serum of the various peptide compounds in accordance with the invention and of the comparative peptide compounds is monitored over time. To this effect, each peptide compound to be analyzed and the internal calibrant (L-phenylalaninol) are dissolved in milliQ water (0.5 mM and 6.6 mM, respectively). The commercial protease inhibitor cocktail (Sigma, ref. P8340) is supplied in solution in DMSO.
The serum and the stock solutions of peptide compounds are preheated at 39° C. for 30 minutes. Each solution of peptide compound (50 μl, i.e. a final concentration in the serum of 50 μM) and the solution of internal calibrant (25 μl) are mixed with 425 μl of serum and incubated at 39° C. The proteolytic degradation kinetics of the compounds are monitored by taking a sample, at various given times, of 75 μl of the solution, which are diluted with 150 μL of acetonitrile in order to precipitate the serum proteins. The suspension obtained is centrifuged at 14 000 revolutions/min for 10 min at 4° C.
The amount of peptide compound intact after incubation is determined by integration of the area of the peak, using L-phenylalaninol as internal calibrant. It is expressed as % of the area of the peak at time t=0.
The value corresponding to 100% of intact peptide compound is obtained by mixing 420 μl of serum, 5 μl of the inhibitor cocktail and 25 μl of the phenylalaninol solution, followed by 50 μl of peptide compound, and then by immediately treating the resulting solution according to the protocol described above.

A further series addresses T1, human KISS1R receptor (Homo sapiens, UniProt Q969F8).
T1 construct: expressed in transfected cells
Description: Intracellular calcium mobilization test in HEK293A cells expressing human KISS1R. It counts as cell-based. For orientation: A change in cytosolic calcium serves as a functional read-out for many receptors and channels.

The mark [2] stands for this setting: intravenous, ewes at the end of the follicular phase.
Setting [3] is: 1st experiment, ewes in the estrus period, 5 nmol/ewe intravenous.
[4] abbreviates: 2nd experiment, ewes in the anestrus period, 5 nmol/ewe intravenous, FIGS. 6a-6d.

Where two headings read alike, the source gives them in different places. Where a SMILES comes first, the peptide text is derived from it.

T1 sequence (Q969F8 whole entry): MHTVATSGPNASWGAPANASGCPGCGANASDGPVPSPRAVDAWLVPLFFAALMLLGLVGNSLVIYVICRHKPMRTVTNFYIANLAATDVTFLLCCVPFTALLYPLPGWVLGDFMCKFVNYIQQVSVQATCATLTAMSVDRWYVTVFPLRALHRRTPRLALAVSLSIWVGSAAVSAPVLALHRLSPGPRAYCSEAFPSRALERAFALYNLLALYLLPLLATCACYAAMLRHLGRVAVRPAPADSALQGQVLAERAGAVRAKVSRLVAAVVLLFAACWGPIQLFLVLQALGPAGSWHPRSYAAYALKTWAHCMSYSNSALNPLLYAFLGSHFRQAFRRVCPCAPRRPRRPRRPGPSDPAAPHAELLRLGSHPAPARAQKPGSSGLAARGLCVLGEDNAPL
Description for human KISS1R receptor: In order to carry out the in vitro tests for the activity of the peptide compounds in accordance with the invention and the comparative compounds, the HEK293A cell line (ATCC, American Type Culture Collection, Manassas, Va., USA) was stably transfected with the human KISS1R receptor (Genbank accession number: NM_032551). The pcDNA3.1 vector (Invitrogen, Cergy Pontoise, France), into which the sequence of human KISS1R has been inserted with a 5′ HA tag at position 957-2150 bp, was used for the transfection. The transfection and the selection of the clones were carried out as described in the literature (Mancini et al. 2009, and Invitrogen website).
In order to verify the agonist activity and to measure the EC50 of the peptide compounds according to the invention, the following protocol was carried out.
HEK293A cells expressing the human KISS1R receptor were seeded into a 96-well plate (μClear® black plate) at the concentration of 40 000 cells/well, and placed in an incubator at 37° C. After 48 hours, the medium was changed and the cells were incubated with the fluorescent dye Fluo-4NW, according to the instructions of the manufacturer (Molecular Probe).
After having measured the basal fluorescence, 5 μl of the 20× solution containing the test compound were added to each well (containing 95 μl) so as to obtain the desired concentration. The variations in fluorescence were recorded every 7 seconds for 5-7 minutes with a plate reader (PolarStar Optima, BMG Labtech). Activity-concentration curves were generated using the GraphPad Prism 5 software, and the EC50 of each compound was calculated by adjusting the curve to a sigmoid.

As to “KP10: decapeptide kisspeptin-10, endogenous KISS1R ligand; species form not stated for the cited ewe studies”, in the series on LH peak / ovulation (setting [2]), the “induction of an LH peak” value is given as “capable of inducing an LH peak”, the synchronization of ovulations entry is “synchronized to within one hour” and the “time from LH peak to ovulations” value is 21 h. In addition, in the series with LH peak / ovulation (prolonged infusion, period of sexual rest (seasonal anestrus)), the “reactivation of the gonadotropic axis and ovulation” value was “capable of reactivating the gonadotropic axis and inducing ovulation”.
As for `CC(C)C[C@@H](C(=O)N[C@@H](CCCNC(=N)N)C(=O)N[C@@H](Cc1ccc(O)cc1)C(N)=O)n1cc(CNC(=O)[C@H](Cc2ccccc2)NC(=O)[C@H](CO)NC(=O)[C@H](CC(N)=O)NC(=O)[C@H](Cc2c[nH]c3ccccc23)NC(=O)[C@H](CC(N)=O)NC(=O)[C@@H](N)Cc2ccc(O)cc2)nn1` [Compound C1, H-Tyr-Asn-Trp-Asn-Ser-Phe-GlyΨ[Tz]Leu-Arg-Tyr-NH2] (HELM PEPTIDE1{Y.N.W.N.S.F.[CC(C)C[C@@H](C(=O)[*:2])n1cc(CN[*:1])nn1].R.Y.[am]}$$$$V2.0), the “increase in the plasma concentration of LH (% of Comp.1 maximum stimulation)” value (shortened to “increase … (% of Comp.1 maximum stimulation)”) with plasma LH concentration (setting [3]) is “more active than the comparative compounds Comp.1 and Comp.3”. In addition, the “duration of action (LH concentration over time)” value with plasma LH concentration (setting [4]) was “sustained for longer over time than the comparative compounds Comp.1 and Comp.3”.
Take `CCCCCCCCCCCCCCCC(=O)N[C@@H](CCC(=O)NCCCC[C@H](NC(=O)[C@H](Cc1ccc(O)cc1)NC(C)=O)C(=O)N[C@@H](Cc1c[nH]c2ccccc12)C(=O)N[C@@H](CC(N)=O)C(=O)N[C@@H](CO)C(=O)N[C@@H](Cc1ccccc1)C(=O)NCc1cn([C@@H](CC(C)C)C(=O)N[C@@H](CCCNC(=N)N)C(=O)N[C@@H](Cc2ccc(O)cc2)C(N)=O)nn1)C(=O)O` [Compound C8, Ac-Tyr-Lys(γ-(N-hexadecanoyl-Glu-OH))-Trp-Asn-Ser-Phe-GlyΨ[Tz]Leu-Arg-Tyr-NH2] (HELM PEPTIDE1{[ac].Y.K.W.N.S.F.[CC(C)C[C@@H](C(=O)[*:2])n1cc(CN[*:1])nn1].R.Y.[am]}|PEPTIDE2{[CCCCCCCCCCCCCCCC(=O)[*:2]].[gGlu]}$PEPTIDE1,PEPTIDE2,3:R3-2:R2$$$V2.0): in the series on plasma LH concentration (3rd experiment, ewes in the anestrus period, 1, 5 and 15 nmol/ewe intravenous, FIGS. 8a, 8b), the “duration of action (LH concentration over time)” value is “even further sustained over time, and very significantly, than the compound C2”. Further, in the series on plasma LH concentration (3rd experiment, ewes in the anestrus period, 1, 5 and 15 nmol/ewe intravenous, FIGS. 9a, 9b), the “LH secretion (AUC)” value is “even more active than the compound C2”. In addition, in the series on plasma LH concentration (4th experiment, ewes in the estrus period, 15 nmol/ewe intramuscular versus intravenous, FIG. 10), the “LH secretion into the plasma after intramuscular injection” value was “also effective, in vivo, by intramuscular injection”.
`CNC(=N)NCCC[C@H](NC(=O)[C@H](CC(C)C)n1cc(CNC(=O)[C@H](Cc2ccccc2)NC(=O)[C@H](CO)NC(=O)[C@H](CC(N)=O)NC(=O)[C@H](CCCCNC(C)=O)NC(=O)[C@H](CC(N)=O)NC(=O)[C@H](Cc2ccc(O)cc2)NC(C)=O)nn1)C(=O)N[C@@H](Cc1ccc(O)cc1)C(N)=O` [Compound C4, Ac-Tyr-Asn-Lys(Ac)-Asn-Ser-Phe-GlyΨ[Tz]Leu-Arg(Me)-Tyr-NH2] (HELM PEPTIDE1{[ac].Y.N.K.N.S.F.[CC(C)C[C@@H](C(=O)[*:2])n1cc(CN[*:1])nn1].[CNC(=N)NCCC[C@H](N[*:1])C(=O)[*:2]].Y.[am]}|PEPTIDE2{[ac]}$PEPTIDE1,PEPTIDE2,4:R3-1:R2$$$V2.0): the “increase … (% of Comp.1 maximum stimulation)” value in the series on plasma LH concentration (setting [3]) is “more active than the comparative compounds Comp.1 and Comp.3”. In series [1] (serum), this molecule came in with a remaining at 3 h, 50 μM of 59%.
“Ac-YNWNSFGLRY-NH2 [Comp. 3, reference compound]”: the “human KISS1R-stimulating power (in words)” value at human KISS1R receptor (calcium mobilization, compared with Comp.1) was “more powerful than Comp.1 (mKP10) in vitro”. Moreover, in the series on plasma LH concentration (1st experiment, ewes in the anestrus period, 5 nmol/ewe intravenous, FIG. 3, versus Comp.1), the “efficiency and duration of the elevation of the plasma LH concentration” value is on record as “only minimally increases”. In addition, the remaining at 3 h, 50 μM in series [1] (ovine serum, 39° C., 50 μM, 3 h, % of the area of the HPLC peak at time t = 0, read-out: % of peptide intact after 3 h of incubation in the serum) is 11%.
In the case of `CC(=O)N[C@@H](Cc1ccc(O)cc1)C(=O)N[C@@H](CC(N)=O)C(=O)N[C@@H](Cc1c[nH]c2ccccc12)C(=O)N[C@@H](CC(N)=O)C(=O)N[C@@H](CO)C(=O)N[C@@H](Cc1ccccc1)C(=O)NCc1cn([C@@H](CC(C)C)C(=O)N[C@@H](CCCNC(=N)N)C(=O)N[C@@H](Cc2ccc(O)cc2)C(N)=O)nn1` [Compound C2, Ac-Tyr-Asn-Trp-Asn-Ser-Phe-GlyΨ[Tz]Leu-Arg-Tyr-NH2] (HELM PEPTIDE1{[ac].Y.N.W.N.S.F.[CC(C)C[C@@H](C(=O)[*:2])n1cc(CN[*:1])nn1].R.Y.[am]}$$$$V2.0), the “total increase in the plasma LH concentration (AUC) over 9 hours” value in the series on plasma LH concentration (2nd experiment, ewes in the anestrus period, 5 nmol/ewe intravenous, FIG. 7) is listed as “significantly more active than the comparative compounds”. The “duration of action (LH concentration over time)” value with plasma LH concentration (setting [4]) was “sustained for longer over time than the comparative compounds Comp.1 and Comp.3”. Further, the “lifetime in ovine serum (in words)” value in series [1] is “clearly prolonged in comparison with that of the comparative peptide compound Comp.3”. Besides, the remaining at 3 h, 50 μM in series [1] (serum) is 46%.
In the case of `CNC(=N)NCCC[C@H](NC(=O)[C@H](CC(C)C)n1cc(CNC(=O)[C@H](Cc2ccccc2)NC(=O)[C@@H](NC(=O)[C@H](CC(N)=O)NC(=O)[C@@H](Cc2c[nH]c3ccccc23)NC(=O)[C@@H](Cc2ccc(O)cc2)NC(C)=O)[C@@H](C)O)nn1)C(=O)N[C@@H](Cc1c[nH]c2ccccc12)C(N)=O` [Compound C6, Ac-DTyr-DTrp-Asn-Thr-Phe-GlyΨ[Tz]Leu-Arg(Me)-Trp-NH2] (HELM PEPTIDE1{[ac].[dY].[dW].N.T.F.[CC(C)C[C@@H](C(=O)[*:2])n1cc(CN[*:1])nn1].[CNC(=N)NCCC[C@H](N[*:1])C(=O)[*:2]].W.[am]}$$$$V2.0), the EC50 (in general, the midpoint of the concentration-response curve) at human KISS1R receptor (HEK293A cells expressing human KISS1R, Fluo-4NW, read-out: EC50, intracellular calcium mobilization of cells expressing human KISS1R (Table 2)) was 0.01 nM. The “increase … (% of Comp.1 maximum stimulation)” value in the series on plasma LH concentration (setting [3]) was “more active than the comparative compounds Comp.1 and Comp.3”. In series [1] (serum), this molecule registered a remaining at 3 h, 50 μM of 50%.

The values are drawn from US9884891B2, “KISS1R receptor agonist compounds and use thereof for inducing ovulation in mammals” (INSTITUT NATIONAL DE LA RECHERCHE AGRONOMIQUE, priority 2013, dated 2018).
